The subject of the assay is detached retina. Briefly: Experimental retinal detachment, western blot of autophagy markers (Atg5, Atg5-12, LC3-II) in retina. Format: in vivo. To be noted: rat, 0.2 μg subretinal at time of detachment, 7 days, vs detached retinas alone. The procedure: All experiments were performed in accordance with the ARVO Statement for the Use of Animals in Ophthalmic and Vision Research and the guidelines established by the University Committee on Use and Care of Animals of the University of Michigan. Detachments were created in adult male Brown-Norway rats (300-400 g; Charles River Laboratories, Wilmington, Mass.) as described previously. Briefly, rodents were anesthetized with a 50:50 mix of ketamine/xylazine, and pupils were dilated with topical phenylephrine (2.5%) and tropicamide (1%). A 20-gauge microvitreoretinal blade was used to create a sclerotomy 2 mm posterior to the limbus, carefully avoiding lens damage. A subretinal injector (Glaser, 32-gauge tip; BD Ophthalmic Systems, Franklin Lakes, N.J.) was introduced through the sclerotomy into the vitreous cavity and then through a peripheral retinotomy into the subretinal space. Sodium hyaluronate (10 mg/mL, Healon OVD; Abbott Medical Optics, Uppsala, Sweden) was slowly injected to detach the neurosensory retina from the underlying RPE. In all experiments, approximately one third to one half of the neurosensory retina was detached. Detachments were created in the left eye. The right eye served as the control, with all the steps of the procedure performed except for introduction of the subretinal injector and injection of the sodium hyaluronate. […]
Retinas from experimental eyes with detachment (detached portion of retina only) and control eyes without detachment were dissected from the RPE-choroid, homogenized, and lysed in buffer containing 10 mM HEPES (pH 7.6), 0.5% IgEPal, 42 mM KCl, 1 mM phenylmethylsulfonyl fluoride, 1 mM EDTA, 1 mM EGTA, 1 mM dithiothreitol, 5 mM MgCl2, and one tablet of protease inhibitors per 10 mL buffer (Complete Mini; Roche Diagnostics GmbH, Madison, Wis.). […] The protein concentration of the supernatant was then determined (DC Protein Assay kit; Bio-Rad Laboratories, Hercules, Calif.). The protein samples were separated on SDS-polyacrylamide gels (Tris-HCl Ready Gels; Bio-Rad Laboratories). […]
(A western blot detects proteins with antibodies after separation by electrophoresis.)

Molecules are shown by their SMILES. Entries after “also recorded” stand apart in the source; their conditions may differ.

`CCCC[C@@H](C=O)NC(=O)[C@H](CC(C)C)NC(=O)OCc1ccccc1` [calpeptin]: the “Atg5 level in retina” value is on record as “increase in Atg5; also recorded: significantly more Atg5”.

Source of the values: patent publication US20160015770A1, “COMPOSITIONS FOR TREATMENT OF RETINAL DETACHMENT” (THE REGENTS OF THE UNIVERSITY OF MICHIGAN, priority 2013, published 2016).
